Assay results taken from US10806729B2, “Quinoline derivatives for use in the treatment or prevention of viral infection” (ABIVAX, priority 2015, dated 2020).
Entries after “also recorded” stand apart in the source; their conditions may differ.

Tests used:
[1] = test system: HIV-1
Protocol: Resistance to Compound 22 was tested on human PBMCs and compared to current therapies. […] Various classes of antiviral agents can affect the life cycle of HIV-1 in different manners. […] The selection of drug resistant mutants in vitro can be readily accomplished by maintaining the virus in a state of sub-optimal growth, regulated by slowly increasing the amount of drug pressure applied. This technique mimics the consequences of drug therapy in patients. Therefore, in this way, novel compounds can be assessed for their selection profile in order to evaluate the likelihood of emergence of HIV-1 drug resistance in future clinical trials. In addition, combinations of drugs can be investigated in the same manner.

[2] = test system: HIV RNA splicing; test: Sequence capture and 454 pyrosequencing of HIV RNA in infected PBMCs; type: cell-based, HIV-1
Protocol: To test whether Compound 22 influences the splicing of HIV RNA in infected cells, an array-based sequence capture was performed using a customized library probes targeting HIV sequences to get rid of cellular RNA. The probes were used to capture cDNAs prepared from infected treated and untreated PBMCs. After double capture, libraries were prepared and sequenced using 454 pyrosequencing (according to GS junior method manual). The average size of the reads around 400 bp allowed unambiguous assembly of viral genome from untreated sample (after 3 and 6 days of infection) using reads that were not mapped to human genome (hg19). All sequencing data were analysed using gsnap, as detailed in Wu et al. (Fast and SNP-tolerant detection of complex variants and splicing in short reads. Bioinformatics 26, 873-881 (2010)).

[3] = test system: HIV-1 strain Ada-MR5; test: HIV-1 p24 production in infected activated PBMCs (ELISA); type: cell-based; details: stimulated PBMCs, supernatant 6 days post-infection, increasing concentrations
Description: FIG. 1. Potency of quinoline derivatives to inhibit HIV-1 production in PBMC- and macrophages-infected cells. […] Each point represents 6 donors. B) HIV-1 strain YU2 was used to infect triplicate of monocyte derived-macrophages from different donors in the absence or presence of increasing concentrations of Compound 22. […] Each point represents 8 donors.
Buffy coats from HIV-negative individuals were obtained from the local blood donation center in Zurich, Switzerland (http://www.blutspendezurich.ch/) and Centre de transfusion sanguine Montpellier. Human peripheral blood mononuclear cells (PBMCs) were isolated by Ficoll (Axis-Shield PoC AS) gradient centrifugation. The cells have then been cultivated at 37° C., 5% CO2 to a density of 1×10^6 cells/mL in RPMI Glutamax medium (Life Technologies Ref 61870-010) supplemented with 10% fetal calf serum (FCS) (Thermo Fischer Ref SV30160.03), 1000 U/mL of IL2 (Peprotech Ref 200-02) and 5 μg/mL of PHA (Roche Ref 1249738) for activation. Three days later, cells have been pooled and resuspended to a density of 1×10^6 cells/mL in RPMI Glutamax medium supplemented with 10% fetal calf serum (FCS) 1000 U/mL of IL-2 for infection. HIV-1 infection has been performed with 10 μg of Ada-M R5 HIV strain per mL of cells for 4 hours. […]
Cells were treated with 0.01 μM up to 30 μM and p24 antigen levels were monitored in culture supernatant over a 12 day period. […]

[4] = test system: alternative splicing events of endogenous genes; test: RT-PCR analysis of global alternative splicing events in PBMC samples; type: cell-based, human
Description: Quantification of non-viral RNA splicing is achieved using the protocols detailed in […] et al. (Multiple alternative splicing markers for ovarian cancer. Cancer Res. 68, 657-663 (2008)) and Venables et al. (Cancer-associated regulation of alternative splicing. Nat. Struct. Mol. Biol. 16, 670-676 (2009)). […] These 382 alternative splicing events (ASEs) represent a high throughput random snapshot of global alterations of alternative splicing. We performed high throughput PCR analysis of these (essentially random) 382 ASEs on multiple PBMC samples, either from untreated (cells) or treated with DMSO, Compound 22 or with the control antiviral drug (Darunavir). Analysis of the data allowed further stringent quality controls; ASEs were only considered if >75% of the products ran at the expected mobilities (i.e. if the reactions were pure) and if total expected PCR concentration was higher than 20 nM (i.e. if the reactions were strong) which led to 264 remaining ASEs.

[5] = test system: HIV-1 genome (YU2); test: Deep sequencing of virus from treated infected primary macrophages and after amplification in PBMCs; type: cell-based; details: deep sequencing across HIV-1 genome, treated vs untreated samples
Description: To test for emergence and/or selection of mutations associated with Compound 22 treatment, we applied a deep sequencing approach for sensitive detection of low-frequency viral variants across the entire HIV-1 genome. Viruses derived from treated and untreated infected primary macrophages of 4 different donors were sequenced and reads not aligning to human genome were aligned to YU2 sequence using gsnap, as detailed in Wu et al. (Fast and SNP-tolerant detection of complex variants and splicing in short reads. Bioinformatics 26, 873-881 (2010)).
To ascertain that amplification of viruses from treated samples will not mutate when amplified in PBMCs, they were sequenced following amplification with or without drug pressure.

Structure (SMILES): FC(F)(F)Oc1ccc(Nc2ccc3cccc(Cl)c3n2)cc1 [Compound 22, 8-chloro-N-(4-(trifluoromethoxy)phenyl)quinolin-2-amine]
- genotoxicity ([1]; conclusion drawn from the mutation selection results): not genotoxic
- Time of Selection (weeks) ([1]; human PBMCs, increasing drug pressure): 24 weeks
- resistance-inducing mutations detected after treatment ([1]; treatment for at least 24 weeks): no resistance-inducing mutations detected
- effect on spliced HIV RNA [2]: favours spliced HIV RNA
- coverage of viral genome (number of reads) ([2]; 3 days post infection): 4149 reads
- reads corresponding to splice junctions ([2]; 3 days post-infection): 17.4%
- number of reads ([2]; 6 days post-infection): 20 585
- reads corresponding to splice junctions ([2]; 6 days post-infection): 13.3%
- inhibition of HIV-1 replication (p24 antigen) [3]: dose dependent inhibition
- global effect on pre-mRNA splicing [4]: no global effect
- selection of specific viral mutations [5]: does not select for specific mutations; also recorded: unlikely to select for specific viral mutations
- selection of specific viral mutations ([5]; listed as compound 22): do not select for HIV specific mutations
